The text below walks through data of ChEMBL document CHEMBL1201862, “PubChem BioAssay data set” (2004).

The structures appear in SMILES notation.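 The compound was tested at five concentrations on cells cultured in 96-well plates, with a 48-hour exposure period. GI50 is the concentration that inhibits growth by half.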 The source made the active and inactive calls. Cut-off read from the data, not from the text of the source: active = GI50 up to about 1.1 µM and inactive = higher.

Test systems include M14; EKVX; TK-10; SNB-75; SK-MEL-28; SN12C; SK-MEL-5; A549; OVCAR-3; HOP-92; ACHN; Malme-3M; A498; SK-OV-3; UACC-257; IGROV-1; SNB-19; CCRF-CEM; NCI-H522.
Assay in all cases: DTP human tumour cell line panel, 48 h

The GI50 is the concentration that inhibits growth by half.

Take `CC(C)c1cccc(C(C)C)c1NC(=O)CCC(=O)NN`: the GI50 in the test with M14, with EKVX, with TK-10, in the test with SNB-75, in the test with SK-MEL-28 and with SN12C was > 100 µM (inactive) in each case. The GI50 in the test on SK-MEL-5, in the test with A549, in the test on OVCAR-3, in the test with HOP-92, in the test with ACHN and in the test with Malme-3M was > 100 µM (inactive) in each case. Moreover, the GI50 in the test on A498, in the test on SK-OV-3, in the test on UACC-257, in the test with IGROV-1, in the test with SNB-19 and in the test on CCRF-CEM was > 100 µM (inactive) in each case.
With `Cc1cc(C)c2c(c1)CN1CN2Cc2cc(C)cc(C)c21`, the GI50 is 18.2 µM (inactive) in the test on M14; 16.9 µM (inactive) with EKVX; 19 µM (inactive) in the test on TK-10; 4.36 µM (inactive) in the test with SNB-75; 16.5 µM (inactive) in the test on SK-MEL-28; 16.9 µM (inactive) with SN12C. For the same compound, the GI50 in the test with A549 was 27.2 µM (inactive); in the test with OVCAR-3, 14.8 µM (inactive); in the test on HOP-92, > 10 µM (inactive); in the test on ACHN, 18 µM (inactive); in the test with NCI-H522 it was 29 µM (inactive); in the test with SK-OV-3, 27.8 µM (inactive). Besides, the GI50 was 23.4 µM (inactive) in the test with IGROV-1, < 0.01 µM (active) with SNB-19 and 24.6 µM (inactive) in the test on CCRF-CEM.
Regarding `CCOC(=O)C(=O)Nc1ccccc1C`, the GI50 in the test with M14, with EKVX, with TK-10, in the test on SNB-75, in the test with SK-MEL-28 and in the test on SN12C was > 100 µM (inactive) each time. Moreover, the GI50 in the test on SK-MEL-5, with A549, with HOP-92, in the test on ACHN, with Malme-3M and in the test on NCI-H522 was > 100 µM (inactive) in each case. Also, the GI50 in the test with A498, with SK-OV-3, in the test with IGROV-1, in the test on SNB-19 and in the test with CCRF-CEM was > 100 µM (inactive) throughout.
`O=C1Cc2ccccc2N1/N=C\c1ccc([N+](=O)[O-])cc1`: the GI50 in the test with M14 was > 100 µM (inactive); in the test with EKVX, > 100 µM (inactive); in the test on TK-10, > 100 µM (inactive); in the test on SNB-75, 54.8 µM (inactive); in the test on SK-MEL-28 it was > 100 µM (inactive); in the test on SK-MEL-5, > 100 µM (inactive). Also, the GI50 in the test on A549, in the test on OVCAR-3, with HOP-92, in the test on ACHN, with Malme-3M and in the test with A498 was > 100 µM (inactive) in each case. For the same compound, the GI50 in the test on SK-OV-3, in the test on UACC-257, in the test on IGROV-1, with SNB-19 and in the test on CCRF-CEM was > 100 µM (inactive) each time.
In the case of `O=C(OCc1ccccc1)c1ccccc1-c1c2ccc(=O)cc-2oc2cc(OCc3ccccc3)ccc12`, the GI50 in the test on M14 was 15.8 µM (inactive); in the test with EKVX it was 6.61 µM (inactive); in the test on SK-MEL-28, 21.4 µM (inactive); in the test with SN12C, 16.9 µM (inactive); in the test on SK-MEL-5, 5.86 µM (inactive); in the test with A549, 6.7 µM (inactive). The GI50 was 17.6 µM (inactive) in the test on OVCAR-3; 3.56 µM (inactive) in the test with HOP-92; 6.93 µM (inactive) in the test on ACHN; 12.1 µM (inactive) in the test with Malme-3M; 25.5 µM (inactive) in the test on A498; 8.95 µM (inactive) in the test on UACC-257. Moreover, the GI50 in the test with IGROV-1 is 11 µM (inactive); with SNB-19, 35.1 µM (inactive); in the test with CCRF-CEM, 3.61 µM (inactive).
As for `CC(C)c1ccc(Cc2ccc(C(C)C)c(NC(=O)C(=O)Cc3cnc4ccccc4n3)c2C(C)C)c(C(C)C)c1NC(=O)C(=O)Cc1cnc2ccccc2n1`, the GI50 with M14, with EKVX, in the test with TK-10, in the test with SK-MEL-5, in the test on A549 and in the test with OVCAR-3 was > 100 µM (inactive) in each case. For the same compound, the GI50 with HOP-92 was 12.4 µM (inactive); in the test with ACHN, > 100 µM (inactive); with Malme-3M, > 100 µM (inactive); in the test with A498, > 100 µM (inactive); in the test on SK-OV-3 it was > 100 µM (inactive); in the test with UACC-257 it was > 100 µM (inactive). The GI50 with IGROV-1, in the test with SNB-19 and with CCRF-CEM was > 100 µM (inactive) in each case.
In the case of `Cn1c(=O)c2c(nc(C[N+]3([O-])CCOCC3)n2C)n(C)c1=O`, the GI50 is > 100 µM (inactive) in the test with M14; > 100 µM (inactive) in the test on EKVX; > 100 µM (inactive) in the test on TK-10; 63.5 µM (inactive) with SNB-75; > 100 µM (inactive) with SK-MEL-28; > 100 µM (inactive) with SN12C. The GI50 in the test on SK-MEL-5, with A549, in the test with OVCAR-3, in the test with HOP-92, in the test with ACHN and with Malme-3M was > 100 µM (inactive) throughout. The GI50 with NCI-H522, in the test with SK-OV-3, in the test on UACC-257, in the test with IGROV-1, in the test with SNB-19 and in the test on CCRF-CEM was > 100 µM (inactive) in each case.
Consider `O=C(O)c1ccc(Nc2nc3nn(Cc4ccccc4)cc3c(=O)s2)cc1`, for which the GI50 in the test on M14, in the test on EKVX, with TK-10, with SK-MEL-28, in the test on SN12C and in the test on SK-MEL-5 was > 100 µM (inactive) throughout. Further, the GI50 in the test on A549, in the test with OVCAR-3, with HOP-92, in the test with ACHN, with Malme-3M and in the test with NCI-H522 was > 100 µM (inactive) each time. Further, the GI50 in the test with SK-OV-3, in the test on UACC-257, in the test with IGROV-1, in the test on SNB-19 and in the test with CCRF-CEM was > 100 µM (inactive) in each case.
In the case of `Cc1ccc(C2OC(COCc3ccc(Cl)cc3)C(OCc3ccc(Cl)cc3)C2O)cc1` (configuration not stated), the GI50 in the test on EKVX is 13 µM (inactive); in the test with TK-10, 12.7 µM (inactive); with SNB-75 it was 4.37 µM (inactive); with SK-MEL-28, 31.1 µM (inactive); in the test on SN12C, 3.65 µM (inactive); in the test with SK-MEL-5 it was 12.1 µM (inactive). Also, the GI50 in the test on A549 was 9.42 µM (inactive); in the test with OVCAR-3, 10.7 µM (inactive); with HOP-92, 3.18 µM (inactive); in the test on ACHN, 15.1 µM (inactive); with Malme-3M it was > 10 µM (inactive); in the test on SK-OV-3, 2.63 µM (inactive). The GI50 is 17 µM (inactive) with UACC-257, 8.89 µM (inactive) in the test with IGROV-1 and 17.8 µM (inactive) in the test on SNB-19.
In the case of `Oc1cccc(C2SCc3nc4ccccc4n32)c1` (configuration not stated), the GI50 with EKVX was 43.5 µM (inactive); with TK-10, > 100 µM (inactive); in the test on SNB-75, 4.17 µM (inactive); in the test with SK-MEL-28, 59.4 µM (inactive); with SN12C it was 82.2 µM (inactive); in the test on SK-MEL-5, 14.8 µM (inactive). Besides, the GI50 with A549 is 54.7 µM (inactive); in the test on OVCAR-3 it was 45.6 µM (inactive); with HOP-92, 47.5 µM (inactive); in the test with ACHN, 33.8 µM (inactive); with Malme-3M, 41.1 µM (inactive); in the test on NCI-H522, 38.3 µM (inactive). Moreover, the GI50 was 13.2 µM (inactive) with A498; > 100 µM (inactive) with SK-OV-3; 31.7 µM (inactive) in the test on UACC-257; > 100 µM (inactive) in the test on SNB-19; 48.2 µM (inactive) in the test with CCRF-CEM.
With `O=C(CCC(=O)Nc1cccc(Cl)c1)CC(=O)c1ccc(F)cc1`, the GI50 in the test with M14, in the test on TK-10, with SNB-75, with SK-MEL-28, with SN12C and in the test on A549 was > 100 µM (inactive) in each case. Moreover, the GI50 with OVCAR-3, in the test on HOP-92, in the test on ACHN, with Malme-3M, with NCI-H522 and with SK-OV-3 was > 100 µM (inactive) throughout. Moreover, the GI50 with UACC-257 and with SNB-19 was > 100 µM (inactive) throughout.
Consider `Cc1cccc(N(CC(=O)O)S(=O)(=O)c2ccccc2)c1`, for which the GI50 in the test on M14, in the test on EKVX, in the test on TK-10, in the test on SNB-75, with SK-MEL-28 and in the test with SN12C was > 100 µM (inactive) each time. The GI50 in the test on SK-MEL-5, with A549, in the test with OVCAR-3, with HOP-92, with ACHN and in the test with Malme-3M was > 100 µM (inactive) each time. Also, the GI50 in the test with NCI-H522, in the test with A498, with SK-OV-3, in the test with UACC-257, in the test on IGROV-1 and with SNB-19 was > 100 µM (inactive) throughout. For the same compound, the GI50 in the test with CCRF-CEM is > 100 µM (inactive).
